# Tested on: 843126-344-R-J1-PDC complex spheroid viability
# Test: Anticancer human tumor 843126-344-R-J1-PDC patient-derived melanoma cell line growth inhibition [POLQ]
# Conditions: for IC50: curve of first compound; for viability, T/C: stronger effect = lower value
# Procedure: Multicellular complex tumor spheroid response to Polymerase (POL) inhibitors (novobiocin, ART-558, RP6685) in combination with a variety of drugs and investigational agents in selected tumor cell lines
# The POL inhibitors (novobiocin, ART-558, and RP6685) were evaluated both individually and in combination with standard of care and investigational anticancer small molecules within a complex spheroid model of solid tumors. . Complex spheroids include a stromal component modeled by human endothelial cells (HUVEC) and fibroblasts modeled by human mesenchymal stem cells (MSCs). The concentration ranges selected for each drug and investigational agent were based upon clinically achievable concentrations if the clinical Cmax of the agent was known.
# Compounds. The drugs and investigational agents: novobiocin (NSC847541), ART-558 (NSC835418), RP-6685 (NSC848927), peposertib (NSC802822), ceralasertib (NSC780249), elimusertib (NSC800525), camonsertib (NSC841442), AZD-1390 (NSC803789), olaparib (NSC753686), talazoparib (NSC767125), rucaparib (NSC756644), sotorasib (NSC818433), MRTX-1133 (NSC836407), SN-38 (NSC673596), topotecan (NSC609699), epotoside (NSC141540), doxorubicin (NSC123127), gemcitabine (NSC613327), 5-fluorouracil (NSC19893), paclitaxel (NSC125973), vemurafenib (NSC761431), MSA-2 (NSC828583), SN-011 (NSC837082), adavosertib (NSC754352), prexasertib (NSC758257), carboplatin (NSC241240) and oxaliplatin (NSC266046), were obtained from the National Cancer Institute (NCI) Developmental Therapeutics Program Chemical Repository (21). The FDA-approved anticancer drug set is available from the Developmental Therapeutics Program at https://dtp.cancer.gov/organization/dscb/obtaining/. […] The stock solutions were prepared in dimethyl sulfoxide (DMSO, Sigma-Aldrich, St. Louis, MO, cat. D2650), except for the platinum compounds which were prepared in saline (Quality Biological, Gaithersburg, MD, cat. 114-055-101), at 800-fold the tested concentration and stored at -70 degrees C prior to their use. All drugs and investigational agents were tested over a range starting from a high concentration at or near the clinical Cmax and decreasing in half-log increments. If the clinical Cmax for an agent had not been determined, the highest concentration tested was 10 microM, except for SN-38, which was tested at a high concentration of 1 microM.
# Cell Culture. All cells were maintained in an incubator at 37 degrees C and 5% CO2 with 95% humidity. The PDC lines were cultured according to standard operating procedures established by the NCI PDMR (https://pdmr.cancer.gov). Table 3 of the manuscript, lists the cell lines along with the number of the three cell types plated to form the mct-spheroids and media for tumor cell growth. After thawing, all PDC lines, except 997537-175-T-J1-PDC and 415267-285-R-J2-PDC, were cultured in Matrigel-coated flasks prepared with a working solution of 1X Ham's F-12 nutrient mix, without supplementation (Thermo Fisher Scientific, cat. 11765054), 100 U/mL penicillin-streptomycin (Thermo Fisher Scientific, cat. 15140122), and 2.5% Matrigel (Corning Inc., Corning, NY, cat. 354248) for the first three passages. The two PDC lines 997537-175-T-J1-PDC and 415267-285-R-J2-PDC were cultured on uncoated flasks. The 857933-349-R-J2-PDC line was cultured in 6C/Colon 1B media containing advanced DMEM/F-12 (Thermo Fisher Scientific, cat. 12634028), 10 mM HEPES (Thermo Fisher Scientific, cat. 15630080), 1X GlutaMAX supplement (Thermo Fisher Scientific, cat. 35050061), 0.1 mg/mL primocin (InvivoGen, San Diego, CA, cat. ant-pm-2), 10% defined fetal bovine serum, heat inactivated (HyClone Laboratories Inc., Logan, UT, cat. SH30070.03HI), 50% L-WRN conditioned media (ATCC, cat. CRL-3276), 1.25 mM N-Acetyl-L-cysteine (Sigma-Aldrich, cat. A9165), 10 mM nicotinamide (Sigma-Aldrich, cat. N0636), 1X B-27 supplement (Thermo Fisher Scientific, cat. 17504044), 1X N-2 supplement (Thermo Fisher Scientific, cat. […]
# [1] = second compound 0.0316 µM, first compound 0.00316 µM
# [2] = second compound 0.0316 µM, first compound 0.01 µM
# [3] = second compound 0.0316 µM, first compound 0.0316 µM
# [4] = second compound 0.0316 µM, first compound 0.1 µM
# [5] = second compound 0.0316 µM, first compound 0.316 µM
# [6] = second compound 0.0316 µM, first compound 1 µM
# [7] = second compound 0.1 µM, first compound 0.00316 µM
# [8] = second compound 0.1 µM, first compound 0.01 µM
# [9] = second compound 0.1 µM, first compound 0.0316 µM
# [10] = second compound 0.1 µM, first compound 0.1 µM
# [11] = second compound 0.1 µM, first compound 0.316 µM
# [12] = second compound 0.1 µM, first compound 1 µM
# [13] = second compound 0.316 µM, first compound 0.00316 µM
# [14] = second compound 0.316 µM, first compound 0.01 µM
# [15] = second compound 0.316 µM, first compound 0.0316 µM
# [16] = second compound 0.316 µM, first compound 0.1 µM
# [17] = second compound 0.316 µM, first compound 0.316 µM
# [18] = second compound 0.316 µM, first compound 1 µM
# [19] = second compound 1 µM, first compound 0.00316 µM
# [20] = second compound 1 µM, first compound 0.01 µM
# [21] = second compound 1 µM, first compound 0.0316 µM
# [22] = second compound 1 µM, first compound 0.1 µM
# [23] = second compound 1 µM, first compound 0.316 µM
# [24] = second compound 1 µM, first compound 1 µM
# [25] = second compound 3.16 µM, first compound 0.00316 µM
# [26] = second compound 3.16 µM, first compound 0.01 µM
# [27] = second compound 3.16 µM, first compound 0.0316 µM
# [28] = second compound 3.16 µM, first compound 0.1 µM
# [29] = second compound 3.16 µM, first compound 0.316 µM
# [30] = second compound 3.16 µM, first compound 1 µM
# [31] = second compound 10 µM, first compound 0.00316 µM
# [32] = second compound 10 µM, first compound 0.01 µM
# [33] = second compound 10 µM, first compound 0.0316 µM
# [34] = second compound 10 µM, first compound 0.1 µM
# [35] = second compound 10 µM, first compound 0.316 µM
# [36] = second compound 10 µM, first compound 1 µM
# 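For viability, T/C in this document: spheroids exposed to drugs for seven days before readout.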
structure (smiles),measurement,setting,value
C=CCn1c(=O)c2cnc(Nc3ccc(N4CCN(C)CC4)cc3)nc2n1-c1cccc(C(C)(C)O)n1 + Cc1cccc(N(C)C(=O)C2C(O)CCN2c2nc(C)cc(C(F)(F)F)c2C#N)c1,IC50,second compound 0.0316 µM,> 1000 nM
same,IC50,second compound 0.1 µM,> 1000 nM
same,IC50,second compound 0.316 µM,> 1000 nM
same,IC50,second compound 1 µM,> 1000 nM
same,IC50,second compound 3.16 µM,> 1000 nM
same,IC50,second compound 10 µM,> 1000 nM
same,"viability, T/C",[1],108%
same,"viability, T/C",[2],88.7%
same,"viability, T/C",[3],95.2%
same,"viability, T/C",[4],111%
same,"viability, T/C",[5],105%
same,"viability, T/C",[6],81.8%
same,"viability, T/C",[7],111%
same,"viability, T/C",[8],113%
same,"viability, T/C",[9],103%
same,"viability, T/C",[10],113%
same,"viability, T/C",[11],95.9%
same,"viability, T/C",[12],80.8%
same,"viability, T/C",[13],101%
same,"viability, T/C",[14],103%
same,"viability, T/C",[15],108%
same,"viability, T/C",[16],93.3%
same,"viability, T/C",[17],89.3%
same,"viability, T/C",[18],73.7%
same,"viability, T/C",[19],86%
same,"viability, T/C",[20],102%
same,"viability, T/C",[21],111%
same,"viability, T/C",[22],99.5%
same,"viability, T/C",[23],122%
same,"viability, T/C",[24],86%
same,"viability, T/C",[25],103%
same,"viability, T/C",[26],105%
same,"viability, T/C",[27],104%
same,"viability, T/C",[28],112%
same,"viability, T/C",[29],113%
same,"viability, T/C",[30],89.3%
same,"viability, T/C",[31],105%
same,"viability, T/C",[32],89%
same,"viability, T/C",[33],94.3%
same,"viability, T/C",[34],94.1%
same,"viability, T/C",[35],102%
same,"viability, T/C",[36],83.6%
CCc1c2c(nc3ccc(O)cc13)-c1cc3c(c(=O)n1C2)COC(=O)[C@]3(O)CC + COC1C(OC(N)=O)C(O)C(Oc2ccc3c(O)c(NC(=O)c4ccc(O)c(CC=C(C)C)c4)c(=O)oc3c2C)OC1(C)C,IC50,second compound 0.0316 µM,> 1000 nM
same,IC50,second compound 0.1 µM,> 1000 nM
same,IC50,second compound 0.316 µM,> 1000 nM
same,IC50,second compound 1 µM,429 nM
same,IC50,second compound 3.16 µM,242 nM
same,IC50,second compound 10 µM,485 nM
same,"viability, T/C",[1],63.2%
same,"viability, T/C",[2],59.4%
same,"viability, T/C",[3],65.9%
same,"viability, T/C",[4],64.5%
same,"viability, T/C",[5],63.1%
same,"viability, T/C",[6],42.7%
same,"viability, T/C",[7],66.5%
same,"viability, T/C",[8],52.1%
same,"viability, T/C",[9],71.4%
same,"viability, T/C",[10],69.2%
same,"viability, T/C",[11],63.8%
same,"viability, T/C",[12],48.6%
same,"viability, T/C",[13],70.5%
same,"viability, T/C",[14],59.4%
same,"viability, T/C",[15],64.9%
same,"viability, T/C",[16],64.8%
same,"viability, T/C",[17],73%
same,"viability, T/C",[18],50.3%
same,"viability, T/C",[19],66.7%
same,"viability, T/C",[20],48.2%
same,"viability, T/C",[21],50.9%
same,"viability, T/C",[22],70.6%
same,"viability, T/C",[23],48.6%
same,"viability, T/C",[24],40.5%
same,"viability, T/C",[25],66.9%
same,"viability, T/C",[26],63.7%
same,"viability, T/C",[27],73.3%
same,"viability, T/C",[28],57.1%
same,"viability, T/C",[29],50.9%
same,"viability, T/C",[30],44.8%
same,"viability, T/C",[31],59.9%
same,"viability, T/C",[32],62.7%
same,"viability, T/C",[33],56.3%
same,"viability, T/C",[34],67.5%
same,"viability, T/C",[35],50%
same,"viability, T/C",[36],43%
